Data set [1] deals with DENV3 (NIBSC code CH53489). The experiment in a line: Plaque reduction assay in Vero cells, DENV3. To be noted: m.o.i. 0.001, read-out: Antiviral activity IC50 vs DENV3. The data set is classed as cell-based, Dengue virus. The protocol: (§1) The cells were grown in 24 well plates until the monolayer reached approximately 90% confluence, after which they were washed twice with MEM medium without Fetal Bovine Serum (FBS). Then, peptide dilutions were added and the cell-peptide mixtures were incubated typically for 1 hour at 37° C., followed by the addition of a DENV serotype 2 preparation (NIBSC code S16803) at a multiplicity of infection (m.o.i.) of 0.001. The cells were then incubated for 1 hour at 37° C., and once the period of incubation with the viral inoculum concluded, were washed again to remove unbound virions and incubated for 5 days at 37° C. in high density medium (MEM supplemented with non-essential amino acids, 1% FBS, 1% carboxymethylcellulose) in order to let viral plaques form. Afterwards, the cells were stained with 0.1% Naphtol Blue Black in 0.15 M sodium acetate. Two replicates per experimental point were used in each assay, and three independent determinations were performed for each sample.
(§2) Next, it was decided to compare the antiviral activity of peptides PHB4 and HDIII3CL against all four DENV serotypes, with the objective of comparing their respective IC50 values. […]
Background: Plaque reduction counts the foci of infection that form in a cell layer.

In data set [2] the test system is DENV serotype 2 (NIBSC code S16803). The experiment in a line: Plaque reduction assay in Vero cells, DENV2. In kind it is cell-based, Dengue virus. Here is the method: as §1
Next, it was decided to compare the antiviral activity of peptides PHB4 and HDIII3CL against all four DENV serotypes, with the objective of comparing their respective IC50 values. This comparison was performed with plaque reduction assays on Vero cells, adding the viral inoculum for each serotype (DENV1, NIBSC code West Pac 74, DENV2, NIBSC, code S16803; DENV3, NIBSC, code CH53489; DENV 4, NIBSC code TVP360) at a m.o.i. of 0.001.

Data set [3] concerns DENV 4 (NIBSC code TVP360). Nature of the data set: Plaque reduction assay in Vero cells, DENV4. In kind it is cell-based, Dengue virus. To be noted: m.o.i. 0.001, read-out: Antiviral activity IC50 vs DENV4. The protocol:
as §1, §2

Data set [4] relates to DENV1 (NIBSC code West Pac 74). Nature of the data set: Plaque reduction assay in Vero cells, DENV1. In kind it is cell-based, Dengue virus. The conditions noted are these: m.o.i. 0.001, read-out: Antiviral activity IC50 vs DENV1. Here is the method:
as §1, §2

Data set [5] is described as follows: Toxicity in Vero cells (MTT assay and manual cell counting). In kind it is cell-based. The conditions noted are these: ‡ non toxic at 1000 μM, read-out: Ctox50. Here is the method: (§3) The toxicity of the beta hairpin peptides was assessed with the MTT (3-(4,5-dimethylthiazol-2-yl)-2,5-diphenyltetrazolium bromide, Invitrogen, USA) assay (Mosmann, T. (1983). J. Immunol. Methods 65, 55-63.), and by manual cell counting using a Neubauer chamber. Ninety-six well plates (Costar, USA) were seeded with 200 μL/well of a suspension containing Vero cells at 1×10^5 cells/mL and incubated until the monolayers reached approximately 90% confluence, typically for 18-24 h. After washing the cells twice with DMEM (Dulbecco's Modified Eagle Medium) medium, 50 μL/well were added of the peptide or additive dilutions to be evaluated (Triton ^X-100™ dissolved in PBS was used as positive toxicity control) and the plates were incubated at 37° C. under a 5% CO2 atmosphere for 2 or 24 h. Two different procedures were then employed to measure toxicity: • a) A 2 mg/mL solution of MTT in PBS was added (50 μL/well) and the plates were incubated for further 4 h at 37° C., 5% CO2. The medium was then removed, and 100 μL/well of DMSO were then added to solubilize formazan precipitates. Finally, the optical density (OD) of the supernatants at a wavelength of 540 nm was measured using a plate reader (Sensident Scan™, Merck, Germany). • b) The plates were washed with 200 μL/well of DMEM medium and then a trypsin solution (Sigma, USA) was added at 50 μL/well. After inactivating the trypsin by adding 150 μL/well of DMEM supplemented with 10% FBS, the cells were counted using the Trypan Blue (Gibco, USA) vital stain. The data were processed using the statistical software package Prism v5.3 (GraphPad, USA), using non-linear regression to fit them to a log10 (concentration) vs response curve.
(Tetrazolium assays rely on reduction of a dye to a coloured formazan, in cell work by metabolically active cells.)

In data set [6] the test system is Vero cells. Described as above. The data set is classed as cell-based. The conditions noted are these: ‡ non toxic at 1000 μM. The protocol:
as §3

Data set [7] has as its target T1, sLRP1-CIV (Homo sapiens, UniProt Q07954).
T1 construct: purchased R&D Systems, USA
To be noted: other studies; read-out: Affinity of multi-point interaction with clusters II and IV of LRP1; cited from earlier work.

The target in data set [8] is T1, sLRP1-CIV. The experiment in a line: Biacore (SPR) binding to immobilized sLRP1-CIV. To be noted: double site model, maximum RU vs. concentration. Here is the method: The interaction of the beta hairpin peptides with soluble fragments of the LRP1 receptor was studied by Surface Plasmon Resonance (SPR), using a Biacore X unit. In this technique, one of the interaction partners to be studied is immobilized on the surface of a chip, and the other interaction partner is dissolved in a solution that runs through the measurement cell on top of the interaction surface, under conditions of controlled flow. The association and dissociation of interacting partners is measured in resonance units (RU) and plotted, as a function of time, on charts known as ‘sensorgrams’. SPR, therefore, enables the experimenter to obtain detailed information about the interaction without having to label either interaction partner.
In this example, one channel of a CM5 chip (GE Healthcare, USA) was used to immobilize protein sLRP1-CIV on its surface at high density (see Table 6) and recombinant Human Serum Albumin (rHSA, Sigma-Aldrich, USA) was immobilized on the other channel.
Although it was decided to immobilize sLRP1-CIV at high density because these conditions make easier the detection of any potential interactions with compounds whose molecular weight is lower than that of average proteins (such as the peptides this experiment is intended to study), it must be stressed that in high-density surfaces, mass transfer limitations and the possibility of multivalent binding make difficult the accurate determination of kinetic constants. Therefore, and in order to characterize in greater detail the sLRP1-CIV binding surface, different RAP dilutions (0.6-20 μM) were loaded, and RU were registered under conditions of interaction equilibria (250 sec, see FIG. 13B). […] The data also indicate that immobilized sLRP1-CIV faithfully reproduces the previously reported characteristics of the LRP1-RAP interaction.
The binding of beta hairpin peptides to sLRP1-CIV was studied by loading 20 μM dilutions in running buffer of the different peptide variants onto the sLRP1-CIV chip characterized above. The high strength of the resulting signals is consistent with the binding of aggregated, rather than monomeric forms of the peptides. Therefore, the observed variations between different peptides may reflect either differences in the affinity of unitary peptide interactions or differences in aggregation numbers and/or geometries that lead to variations in the number of peptide units able to simultaneously engage immobilized sLRP1-CIV molecules in a multivalent manner. […] The difference between peptides HDIII3CL2 and HDIII3CL is that the former has an additional C-terminal lysine and has, therefore, a stronger cationic character, which may facilitate additional electrostatic interactions with the negatively charged LRP1 receptor.

[9] abbreviates: DENV2, plaque reduction, NA = no detectable activity at concentrations lower than or equal to 100 μM, read-out: IC50, antiviral activity in Vero cells (50% inhibitory activity).

pIC50, pKd: −log10 of the molar value. Where two headings read alike, the source gives them in different places. Where a SMILES comes first, the peptide text is derived from it. Bridges are numbered along the chain shown (N, C = ends). [ ]: non-standard residue; d: D form. Some results are limits rather than exact numbers.

Consider `CC[C@H](C)[C@@H]1NC(=O)CNC(=O)[C@H]([C@@H](C)CC)NC(=O)[C@H](C(C)C)NC(=O)[C@H]([C@@H](C)CC)NC(=O)[C@H](CC(N)=O)NC(=O)[C@H](CO)NC(=O)[C@@H](N)CSSC[C@@H](C(=O)N[C@@H](CCCCN)C(=O)N[C@@H](CCCCN)C(N)=O)NC(=O)[C@H](Cc2c[nH]c3ccccc23)NC(=O)[C@H](CC(N)=O)NC(=O)[C@H]([C@@H](C)CC)NC(=O)[C@H](CCCCN)NC(=O)[C@H](CC(C)C)NC(=O)[C@H](C)NC(=O)[C@H](CCCCN)NC(=O)[C@H](CC(=O)O)NC(=O)CNC1=O` [HDIII3CL, reference compound] (H-CSNIVIGIGDKALKINWCKK-NH2; disulfide 1-18), for which the pIC50 (as a rule, the negative decadic logarithm of the IC50, by convention in mol/L) in data set [1] is 4.70; in data set [2] (setting [9]) it was 4.70; in data set [2] (Vero cells, m.o.i. 0.001, read-out: Antiviral activity IC50 vs DENV2), 4.70; in data set [3], 4.30; in data set [4] it was 4.82. The CC50 in data set [5] was 1000 µM.

On to `CC(C)[C@@H]1NC(=O)[C@H](CCCCN)NC(=O)[C@H](CCCCN)NC(=O)[C@H](CC(=O)O)NC(=O)[C@H]2CCCN2C(=O)[C@H](CCC(=O)O)NC(=O)[C@H]([C@@H](C)O)NC(=O)[C@H](Cc2c[nH]c3ccccc23)NC(=O)[C@H](CC(N)=O)NC(=O)[C@H](C(C)C)NC(=O)[C@@H](N)CSSC[C@@H](C(=O)N[C@@H](CCCCN)C(=O)N[C@@H](CCCCN)C(=O)N[C@@H](CCCCN)C(N)=O)NC(=O)[C@H](Cc2c[nH]c3ccccc23)NC(=O)[C@H](CC(N)=O)NC1=O` [PHB1] (H-CVNWTE[dP]DKKVNWCKKK-NH2; disulfide 1-14), for which the pIC50 in data set [2] (setting [9]) is 4.12. Also, the Ctox50 in data set [6] is reported as >>1000^‡ μM.

As to `CC[C@H](C)[C@@H]1NC(=O)[C@H](Cc2ccccc2)NC(=O)[C@H](Cc2c[nH]c3ccccc23)NC(=O)[C@H](CC(N)=O)NC(=O)[C@H](C(C)C)NC(=O)[C@H](CCCCN)NC(=O)[C@H](CCCCN)NC(=O)[C@H](CC(=O)O)NC(=O)[C@H]2CCCN2C(=O)[C@H](CCC(=O)O)NC(=O)[C@H]([C@@H](C)O)NC(=O)[C@H](Cc2c[nH]c3ccccc23)NC(=O)[C@H](CC(N)=O)NC(=O)[C@H](C(C)C)NC(=O)[C@H](CCC(=O)O)NC(=O)[C@H]([C@@H](C)CC)NC(=O)[C@@H](N)CSSC[C@@H](C(=O)N[C@@H](CCCCN)C(=O)N[C@@H](CCCCN)C(=O)N[C@@H](CCCCN)C(N)=O)NC1=O` [PHB3] (H-CIEVNWTE[dP]DKKVNWFICKKK-NH2; disulfide 1-18), the pIC50 in data set [2] (setting [9]) was 4.77. For the same molecule, the Ctox50 in data set [6] is recorded as >>1000^‡ μM.

For “RAP: Receptor-Associated Protein, a known LRP1 ligand”, the pKd in data set [7] is 7.74 to 8.22; in data set [8] (read-out: Kd of high-affinity interaction) it was 8.38; in data set [8] (read-out: Kd of low-affinity interaction) it was 5.96.

The values above are taken from patent US9896482B2, “Beta hairpin peptides having antiviral properties against Dengue virus” (CENTRO DE INGENIERÍA GENÉTICA Y BIOTECNOLOGÍA, priority 2014, dated 2018).
